Laboratory results: US8546611B2 (priority 2008, dated 2013)
Read-outs that look alike come from different tables or passages of the source.

Experiments:
[1] = system: erythroid cells isolated from the bone marrow of laboratory mice males; details: feed with succinic acid 20 mg/kg body wt., not irradiated, norm 5.0±1.0
Protocol: The test for genotoxicity was performed on young laboratory mice males (18-20 g; 6 animals in each group). […] The control animals were given water.

Wistar rat males = details: 1.5 ml of 1% succinic acid perorally 10 min prior; for Eosinophils, 6 h after / Lymphocytes, 6 h after / Number of leukocytes in 1 μl of blood, 6 h after / Segmentated cells, 6 h after: 6 h after immobilization; for Eosinophils, before / Lymphocytes, before / Number of leukocytes in 1 μl of blood, before / Segmentated cells, before: at the moment of immobilization
Protocol: Examples, illustrating the method invented, are presented below. […] SA is tested on rats endured an immobilization stress; the parameter tested is lymphocytic composition of blood, which is determined before and after stress in a blood smear taken from the caudal vein. […] A detailed description of the testing technique is given in Example 13.
The animals were fixed while lying flat on their back, with their legs secured. […] Blood was taken from the caudal vein: 10 μl for counting blood corpuscles and 20 μl for preparing a smear with its subsequent staining by Romanovsky-Giemsa).
First group: 10 min prior immobilization, the animals were injected (perorally, with the help of a stomach pump) with 1.5 ml of 1% starch solution. […] Blood was taken from the caudal vein at the moment of immobilization and 6 hours later, and stained blood smears were prepared to calculate the leukogram.

[2] = system: patients with cardiac insufficiency; details: for patients of functional class I, day 30 / patients of functional class II, day 30 / patients of functional class III, day 30 / patients of functional class IV, day 30 / patients of functional class I, day 60 / patients of functional class II, day 60 / patients of functional class III, day 60 / patients of functional class IV, day 60 / patients of functional class I, day 90 / patients of functional class II, day 90 / patients of functional class III, day 90 / patients of functional class IV, day 90: 100 mg twice per day with standard therapy; for patients of functional class I, day 30 / patients of functional class II, day 30 / patients of functional class III, day 30 / patients of functional class IV, day 30: after 30 days; for patients of functional class I, day 60 / patients of functional class II, day 60 / patients of functional class III, day 60 / patients of functional class IV, day 60: after 60 days; for patients of functional class I, day 90 / patients of functional class II, day 90 / patients of functional class III, day 90 / patients of functional class IV, day 90: after 90 days; for patients of functional class I, day 0 / patients of functional class II, day 0 / patients of functional class III, day 0 / patients of functional class IV, day 0: 100 mg twice per day, 3 months, with standard therapy, before treatment
Protocol: The test for cardiotonic activity of product samples was performed by measuring the dynamics of alteration of the functional class of cardiac failure. The functional class can be determined quite accurately by analyzing the everyday life activities according to a specific activity scale. The authors of this technique suppose that the criteria developed by NYHA (New York Heart Association) cannot provide accurate determination of functional class, since widely used terms, such as “everyday physical activity”, “sub-everyday activity” are not specific. On the basis of multiple tests, in which patients exercised on a treadmill, the authors calculated a scale of metabolic expenses for each kind of life activity (see Goldman L., Hashimoto B., Cook F. et al., Comparative reproducibility and validity of systems for assessing cardiovascular functional class: advantages of a new specific activity scale (1981) Circulation 64 (6):1227-34). This inquiry is designed to be used by medical personnel, interviewing a patient. After calculating the sum of possible energy expenses, the functional class of the patient is determined according to the summary criteria of the specific activity scale (Table 6).
In the tests, the patient groups were formed so that the people of the same functional class were equally distributed among different groups. Severe patients (of IV functional class; those having oncological diseases or suffered myocardial infarction/stroke to the brain 60 days or less before) were not admitted to the tests. The distribution of patients among groups was governed by a random number generator. The tests were carried out by the following protocol. Each patient took 100 mg of the preparation twice per day (in the morning and after lunch) during 3 months—against the background of a standard therapy administered by a physician. […] All the samples and placebo were encoded before sending into the clinic, so none of those involved into the tests (patients, physicians, medical personnel and the manager of tests) was aware of the nature of samples.
The functional class of patients was determined several times: at the beginning of tests (before the formation of test groups) and after 30, 60 and 90 days of treatment with the test samples. The estimation was performed on the basis of the activity scale (Table 7).

white rat females = details: in vivo; for Total died: 14 days
[3] = system: erythroid cells isolated from the bone marrow of gamma-irradiated laboratory mice males; assay: Radioprotective properties (micronucleus test after gamma irradiation); details: mice irradiated with gamma rays 1.3 Gy, then fed 48 h succinic acid 20 mg/kg body wt.; critical value 16±2

| Compound | Number of micronuclei per 2000 cells (genotoxicity) [1] | patients of functional class I, day 30 [2] | patients of functional class II, day 30 [2] | patients of functional class III, day 30 [2] | patients of functional class IV, day 30 [2] | patients of functional class I, day 60 [2] | patients of functional class II, day 60 [2] | patients of functional class III, day 60 [2] | patients of functional class IV, day 60 [2] | patients of functional class I, day 90 [2] | patients of functional class II, day 90 [2] | patients of functional class III, day 90 [2] | patients of functional class IV, day 90 [2] | patients of functional class I, day 0 [2] | patients of functional class II, day 0 [2] | patients of functional class III, day 0 [2] | patients of functional class IV, day 0 [2] | Total died (white rat females; female, 5000 mg/kg) | Number of micronuclei per 2000 cells (radioprotective properties) [3] | died, 14 day (white rat females; female, 5000 mg/kg) | other results |
| --- | --- | --- | --- | --- | --- | --- | --- | --- | --- | --- | --- | --- | --- | --- | --- | --- | --- | --- | --- | --- | --- |
| O=C(O)CCC(=O)O [Example 1, succinic acid, reference compound] | 5.5 ± 0.8 | 8 | 7 | 5 | 0 | 9 | 6 | 5 | 0 | 9 | 7 | 4 | 0 | 8 | 7 | 5 | 0 | 0 | 25.5 ± 1.0 | – | Eosinophils, 6 h after (Wistar rat males; listed as Ex. 1): 0%; Lymphocytes, 6 h after (Wistar rat males; listed as Ex. 1): 69 ± 5%; Number of leukocytes in 1 μl of blood, 6 h after (Wistar rat males; listed as Ex. 1): 7900; Segmentated cells, 6 h after (Wistar rat males; listed as Ex. 1): 29 ± 3%; Eosinophils, before (Wistar rat males; listed as Ex. 1): 2 ± 4%; Lymphocytes, before (Wistar rat males; listed as Ex. 1): 78 ± 4%; Number of leukocytes in 1 μl of blood, before (Wistar rat males; listed as Ex. 1): 5900; Segmentated cells, before (Wistar rat males; listed as Ex. 1): 21 ± 2%; animals died, extra test with doubled dose (white rat females; 10000 mg/kg): Not a single animal died |
| O=C(O)CCC(=O)O [Example 4, succinic acid] | 5.5 ± 1.0 | 8 | 7 | 5 | 0 | 9 | 9 | 3 | 0 | 13 | 6 | 1 | 0 | 8 | 7 | 5 | 0 | 3 | 12.5 ± 2.0 | 1 | Eosinophils, 6 h after (Wistar rat males; listed as Ex. 4): 1.5 ± 6%; Lymphocytes, 6 h after (Wistar rat males; listed as Ex. 4): 74 ± 8%; Number of leukocytes in 1 μl of blood, 6 h after (Wistar rat males; listed as Ex. 4): 7100; Segmentated cells, 6 h after (Wistar rat males; listed as Ex. 4): 24 ± 3%; Eosinophils, before (Wistar rat males; listed as Ex. 4): 2 ± 4%; Lymphocytes, before (Wistar rat males; listed as Ex. 4): 77 ± 4%; Number of leukocytes in 1 μl of blood, before (Wistar rat males; listed as Ex. 4): 5900; Segmentated cells, before (Wistar rat males; listed as Ex. 4): 21 ± 2%; died, 12 day (white rat females; female, 5000 mg/kg, 12 day): 1; died, 13 day (white rat females; female, 5000 mg/kg): 1 |
| O=C(O)CCC(=O)O [Example 5, succinic acid] | 5.0 ± 1.0 | 8 | 7 | 5 | 0 | 9 | 7 | 4 | 0 | 14 | 5 | 1 | 0 | 8 | 7 | 5 | 0 | 3 | 12.0 ± 1.2 | 1 | Eosinophils, 6 h after (Wistar rat males; listed as Ex. 5): 1.5 ± 8%; Lymphocytes, 6 h after (Wistar rat males; listed as Ex. 5): 75 ± 4%; Number of leukocytes in 1 μl of blood, 6 h after (Wistar rat males; listed as Ex. 5): 7200; Segmentated cells, 6 h after (Wistar rat males; listed as Ex. 5): 24 ± 3%; Eosinophils, before (Wistar rat males; listed as Ex. 5): 2 ± 6%; Lymphocytes, before (Wistar rat males; listed as Ex. 5): 76 ± 5%; Number of leukocytes in 1 μl of blood, before (Wistar rat males; listed as Ex. 5): 6000; Segmentated cells, before (Wistar rat males; listed as Ex. 5): 22 ± 4%; died, 13 day (white rat females; female, 5000 mg/kg): 2 |
| O=C(O)CCC(=O)O [Example 6, succinic acid] | 4.5 ± 1.0 | 10 | 6 | 4 | 0 | 11 | 6 | 3 | 0 | 14 | 5 | 1 | 0 | 8 | 7 | 5 | 0 | 3 | 12.5 ± 1.0 | 2 | Eosinophils, 6 h after (Wistar rat males; listed as Ex. 6): 1.0 ± 2%; Lymphocytes, 6 h after (Wistar rat males; listed as Ex. 6): 74 ± 6%; Number of leukocytes in 1 μl of blood, 6 h after (Wistar rat males; listed as Ex. 6): 7000; Segmentated cells, 6 h after (Wistar rat males; listed as Ex. 6): 25 ± 3%; Eosinophils, before (Wistar rat males; listed as Ex. 6): 2 ± 2%; Lymphocytes, before (Wistar rat males; listed as Ex. 6): 77 ± 5%; Number of leukocytes in 1 μl of blood, before (Wistar rat males; listed as Ex. 6): 5800; Segmentated cells, before (Wistar rat males; listed as Ex. 6): 21 ± 3%; died, 11 day (white rat females; female, 5000 mg/kg, 11 day): 1 |
